Reference: patent publication US20240270701A1, “BETA ADRENERGIC AGONIST AND METHODS OF USING THE SAME” (Curasen Therapeutics, Inc., priority 2021, published 2024)
Read-outs that look alike come from different tables or passages of the source. Each block holds one molecule with its values, some of them ahead of it.

Experiments:
B1-AR = biological target: T1, B1-AR (Homo sapiens, UniProt P08588); assay: cAMP Gs dynamic HTRF assay, cells expressing beta-adrenergic receptor (CHO-K1), B1-AR; type: cell-based; conditions: for EC50: cAMP HTRF, read-out: pEC50 [B1-AR] (converted); for Emax: relative to full agonist isoproterenol, read-out: Emax (% iso) (%) [B1-AR]
T1 construct: expressed in transfected cells; host or cells: CHO-K1
Experimental: (§1) cAMP homogeneous time-resolved fluorescence (HTRF): experimental methods. Compound efficacy is determined using the cAMP Gs dynamic HTRF assay (Cisbio, catalog #62AM4PEC) largely following the manufacturer's instructions, also detailed below.
(§2) Standard serial dilution curves are 10-point, 5-fold dilutions starting from a highest concentration of 10 μM. Controls present on every assay plate are 0.1% DMSO (vehicle control), 1 μM isoproterenol (full beta-adrenergic agonist control) and […] xamoterol (partial beta-adrenergic agonist control). […] Assay plates are centrifuged at 500×g for 10 seconds. Compounds and IBMX are prepared at 2× final dose to compensate for addition of cells.
(§3) Cell preparation: 1× stimulation buffer, washing PBS (Dulbecco's phosphate-buffered saline, − Mg − Ca; Caisson Labs, catalog #PBL01), assay PBS (Dulbecco's phosphate-buffered saline, + Mg, + Ca; Caisson Labs, catalog #PBL02) and Versene (0.02% EDTA disodium salt solution in PBS without calcium or magnesium; Caisson Labs, catalog #EDL01) are pre-warmed to 37° C. Cells expressing beta-adrenergic receptor were washed in washing PBS to remove growth medium and then released from the surface by incubating with Versene for 5-10 minutes at 37° C. Cells are harvested using assay PBS, counted manually by hemocytometer or by an automated cell counter, pelleted by centrifugation (200×g, 5 minutes) and resuspended in 37° C. 1× stimulation buffer to a final density of 1.5×10^6 cells/mL. 5 μL of the suspended cell solution (7500 cell total) are added to all wells of the 384 well assay plate, the assay plate was covered with an Axygen® plate seal (Corning PCR-SP) and incubated in a humidified 37° C. environment supplemented with 5% CO2 for 30 minutes.
(§4) HTRF reagent addition, reading and data analysis: After 30 minutes of cell stimulation with test compound, the assay plates are centrifuged at 500×g for 10 seconds, and incubation was stopped with the addition of 5 μL cAMP-D2 acceptor, diluted 1:21 in detection and lysis buffer 2 (Cisbio 62CL2FDF) was added to all cells. Subsequently, 5 μL Anti-cAMP-Eu Donor, diluted 1:21 in detection and lysis buffer 2, was added to cells. Plates were sealed and reactions gently ‘vortexed’ at 900 rpm on a Heidolph Titramax 1000 for at least 30 minutes at room temperature. Plates are centrifuged again at 500×g for 10 seconds, and HTRF was measured using a Tecan Spark plate reader at 50 flashes per well. […] Potency estimates (EC50 and pEC50) are derived from the four-parameter nonlinear regression of the concentration-effect curve and an estimate of relative efficacy is determined by comparing the magnitude of the test compound HTRF signal window (min−max dose) with the signal window of the full agonist control, isoproterenol.

B2-AR = biological target: T2, B2-AR (Homo sapiens, UniProt P07550); assay: cAMP Gs dynamic HTRF assay, cells expressing beta-adrenergic receptor (CHO-K1), B2-AR; type: cell-based; conditions: for Emax: relative to full agonist isoproterenol, read-out: Emax (% iso) (%) [B2-AR]; for EC50: cAMP HTRF, read-out: pEC50 [B2-AR] (converted)
T2 construct: expressed in transfected cells; host or cells: CHO-K1
Experimental: as §1, §2, §3, §4

T2 sequence (P07550 whole entry, species assumed): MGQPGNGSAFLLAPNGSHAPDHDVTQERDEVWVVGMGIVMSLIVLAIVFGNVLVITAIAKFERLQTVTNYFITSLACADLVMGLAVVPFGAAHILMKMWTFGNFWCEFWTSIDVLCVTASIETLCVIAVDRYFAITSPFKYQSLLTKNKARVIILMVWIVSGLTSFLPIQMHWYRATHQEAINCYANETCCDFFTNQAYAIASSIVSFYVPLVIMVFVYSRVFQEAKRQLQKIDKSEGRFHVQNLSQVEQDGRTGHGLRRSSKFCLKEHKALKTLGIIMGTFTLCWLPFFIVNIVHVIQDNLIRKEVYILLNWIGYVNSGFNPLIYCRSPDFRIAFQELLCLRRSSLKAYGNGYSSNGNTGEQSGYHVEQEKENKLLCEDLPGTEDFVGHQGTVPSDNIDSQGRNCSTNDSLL
T1 sequence (P08588 whole entry, species assumed): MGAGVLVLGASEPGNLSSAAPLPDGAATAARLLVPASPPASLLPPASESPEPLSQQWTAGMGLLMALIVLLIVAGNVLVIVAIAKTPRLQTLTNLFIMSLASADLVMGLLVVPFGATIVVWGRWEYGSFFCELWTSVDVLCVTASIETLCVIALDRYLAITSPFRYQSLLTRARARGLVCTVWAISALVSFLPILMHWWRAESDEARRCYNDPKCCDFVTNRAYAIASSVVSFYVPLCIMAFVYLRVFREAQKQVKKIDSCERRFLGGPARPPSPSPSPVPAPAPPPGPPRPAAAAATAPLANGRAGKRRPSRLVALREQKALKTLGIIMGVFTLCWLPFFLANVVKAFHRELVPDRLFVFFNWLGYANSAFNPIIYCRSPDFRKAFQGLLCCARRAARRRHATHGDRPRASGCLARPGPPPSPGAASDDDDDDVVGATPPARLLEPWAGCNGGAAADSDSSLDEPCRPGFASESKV

SMILES: CC(C)(C)NC[C@H](O)c1cc(OC(F)F)cc2[nH]ncc12 [I-106]
EC50 (B1-AR): 100 to 1000 nM
Emax (B1-AR): 70 to 90%
Emax (B2-AR; CHO-K1, CHO-K1 cells): 50 to 70%
EC50 (B2-AR; CHO-K1 cells): 10 to 100 nM

SMILES: Cc1ccc([C@@H](O)CNC(C)(C)C)c2c(F)n[nH]c12 [I-60]
EC50 (B1-AR): < 10 nM
Emax (B1-AR): 70 to 90%
Emax (B2-AR; CHO-K1, CHO-K1 cells): 70 to 90%
EC50 (B2-AR; CHO-K1 cells): < 10 nM

SMILES: CC(C)(C)C(C)(C)NC[C@H](O)c1cccc2[nH]ncc12 [I-7]
EC50 (B1-AR): 100 to 1000 nM
Emax (B1-AR): > 90%
Emax (B2-AR; CHO-K1, CHO-K1 cells): > 90%
EC50 (B2-AR; CHO-K1 cells): < 10 nM

SMILES: CC(C)(C)NC[C@@H](O)c1ccc(N)nn1 [I-141]
EC50 (B1-AR): > 1000 nM
Emax (B1-AR): > 90%
Emax (B2-AR; CHO-K1, CHO-K1 cells): > 90%
EC50 (B2-AR; CHO-K1 cells): 100 to 1000 nM

SMILES: CC(C)CNC[C@H](O)c1cccc2[nH]cc(F)c12 [I-111]
EC50 (B1-AR): 10 to 100 nM
Emax (B1-AR): > 90%
Emax (B2-AR; CHO-K1, CHO-K1 cells): 70 to 90%
EC50 (B2-AR; CHO-K1 cells): 10 to 100 nM

SMILES: CC(C)(NC[C@H](O)c1cccc2[nH]nc(F)c12)C1CC1 [I-20]
EC50 (B1-AR): < 10 nM
Emax (B1-AR): > 90%
Emax (B2-AR; CHO-K1, CHO-K1 cells): > 90%
EC50 (B2-AR; CHO-K1 cells): < 10 nM

SMILES: Cc1nc(N)ncc1[C@@H](O)CNC(C)(C)C [I-144]
EC50 (B1-AR): > 1000 nM
Emax (B1-AR): 70 to 90%
Emax (B2-AR; CHO-K1, CHO-K1 cells): > 90%
EC50 (B2-AR; CHO-K1 cells): 10 to 100 nM

SMILES: CC(C)[C@@H](C)NC[C@H](O)c1ccc(F)c2[nH]ncc12 [I-31]
EC50 (B1-AR): 10 to 100 nM
Emax (B1-AR): 70 to 90%
Emax (B2-AR; CHO-K1, CHO-K1 cells): > 90%
EC50 (B2-AR; CHO-K1 cells): < 10 nM

SMILES: CCC(C)(C)NC[C@H](O)c1cccc2[nH]ncc12 [I-47]
EC50 (B1-AR): < 10 nM
Emax (B1-AR): 70 to 90%
Emax (B2-AR; CHO-K1, CHO-K1 cells): > 90%
EC50 (B2-AR; CHO-K1 cells): < 10 nM

SMILES: O[C@@H](CNC1CCC1)c1cccc2[nH]cc(F)c12 [I-113]
EC50 (B1-AR): < 10 nM
Emax (B1-AR): > 90%
Emax (B2-AR; CHO-K1, CHO-K1 cells): > 90%
EC50 (B2-AR; CHO-K1 cells): 10 to 100 nM

SMILES: CC(C)[C@@H](C)NC[C@H](O)c1cccc2[nH]nc(F)c12 [I-38]
EC50 (B1-AR): < 10 nM
Emax (B1-AR): 70 to 90%
Emax (B2-AR; CHO-K1, CHO-K1 cells): > 90%
EC50 (B2-AR; CHO-K1 cells): < 10 nM

SMILES: COc1ccnc2ccc([C@@H](O)CNC(C)(C)C)cc12 [I-74]
EC50 (B1-AR): 100 to 1000 nM
Emax (B1-AR): < 50%
Emax (B2-AR; CHO-K1, CHO-K1 cells): < 50%
EC50 (B2-AR; CHO-K1 cells): > 1000 nM

The remaining lines, values ahead:

EC50 (B1-AR): 10 to 100 nM
Emax (B1-AR): 70 to 90%
EC50 (B2-AR; CHO-K1 cells): < 10 nM
Emax (B2-AR; CHO-K1 cells): > 90%
SMILES: O[C@@H](CNC1CCC1)c1cccc2[nH]nc(Cl)c12 [I-97]

EC50 (B1-AR): < 10 nM
Emax (B1-AR): 70 to 90%
EC50 (B2-AR; CHO-K1 cells): < 10 nM
Emax (B2-AR; CHO-K1 cells): 70 to 90%
SMILES: O[C@@H](CNC1CCC1)c1ccc(Cl)c2[nH]ncc12 [I-119]

EC50 (B1-AR): < 10 nM
Emax (B1-AR): > 90%
EC50 (B2-AR; CHO-K1 cells): < 10 nM
Emax (B2-AR; CHO-K1 cells): > 90%
SMILES: CC1(NC[C@H](O)c2cccc3[nH]nc(F)c23)CCC1 [I-130]

EC50 (B1-AR): < 10 nM
Emax (B1-AR): > 90%
EC50 (B2-AR; CHO-K1 cells): < 10 nM
Emax (B2-AR; CHO-K1 cells): > 90%
SMILES: CC[C@@H](C)NC[C@H](O)c1cc(F)cc2[nH]ncc12 [I-41]

EC50 (B1-AR): 100 to 1000 nM
Emax (B1-AR): 70 to 90%
EC50 (B2-AR; CHO-K1 cells): 10 to 100 nM
Emax (B2-AR; CHO-K1 cells): 70 to 90%
SMILES: CCC(C)(C)NC[C@H](O)c1cncc2[nH]ncc12 [I-53]

EC50 (B1-AR): 100 to 1000 nM
Emax (B1-AR): 70 to 90%
EC50 (B2-AR; CHO-K1 cells): 100 to 1000 nM
Emax (B2-AR; CHO-K1 cells): > 90%
SMILES: O[C@@H](CNC1CC1)c1cncc2[nH]ncc12 [I-164]

EC50 (B1-AR): 10 to 100 nM
Emax (B1-AR): 70 to 90%
EC50 (B2-AR; CHO-K1 cells): < 10 nM
Emax (B2-AR; CHO-K1 cells): 70 to 90%
SMILES: O[C@@H](CNC1CC1)c1cccc2[nH]nc(Cl)c12 [I-98]

EC50 (B1-AR): 100 to 1000 nM
Emax (B1-AR): 50 to 70%
EC50 (B2-AR; CHO-K1 cells): 10 to 100 nM
Emax (B2-AR; CHO-K1 cells): 70 to 90%
SMILES: CC(C)(C)CNC[C@H](O)c1ccc(F)c2[nH]ncc12 [I-87]

EC50 (B1-AR): > 1000 nM
Emax (B1-AR): < 50%
EC50 (B2-AR; CHO-K1 cells): > 1000 nM
Emax (B2-AR; CHO-K1 cells): < 50%
SMILES: Cc1nc(N)c(Cl)cc1[C@H](CO)NC1CC(F)(F)C1 [I-185]

EC50 (B1-AR): > 1000 nM
Emax (B1-AR): < 50%
EC50 (B2-AR; CHO-K1 cells): > 1000 nM
Emax (B2-AR; CHO-K1 cells): 50 to 70%
SMILES: Cc1ncccc1[C@@H](O)CNC1CC(C)(C)C1 [I-182]

EC50 (B1-AR): 10 to 100 nM
Emax (B1-AR): 70 to 90%
EC50 (B2-AR; CHO-K1 cells): < 10 nM
Emax (B2-AR; CHO-K1 cells): 70 to 90%
SMILES: Cc1n[nH]c2cccc([C@@H](O)CNC3(C)CCC3)c12 [I-168]

EC50 (B1-AR): 10 to 100 nM
Emax (B1-AR): > 90%
EC50 (B2-AR; CHO-K1 cells): < 10 nM
Emax (B2-AR; CHO-K1 cells): > 90%
SMILES: CC[C@H](C)NC[C@H](O)c1cccc2[nH]ncc12 [I-24]
